“Also recorded” adds a separate entry of the source.
Experiments:
[1] = system: bovine retinal endothelial cells; assay: Vascular endothelial cell proliferation (cell viability assay kit), bovine retinal endothelial cells; format: cell-based; settings: dose-dependent
Experimental: (§1) Objective: The present study was conducted to evaluate the ability of a novel tyrosine kinase inhibitor, BOL-303213-X, to prevent vascular endothelial cell proliferation in vitro using human retinal, choroidal, and dermal microvascular endothelial cells, as well as bovine retinal endothelial cells. Inhibition of outgrowths in a human choroid explant assay was also used to evaluate BOL-303213-X activity in a more complex multi-cellular angiogenesis ex vivo model. Furthermore, caspase-3/7 and lactate dehydrogenase (LDH) activities were also determined following treatment of human retinal and choroidal endothelial cells with BOL-303213-X as a preliminary measure of cytotoxicity. Methods: Human retinal and choroidal vascular endothelial cells were isolated and cultured from human donor eyes. Human dermal microvascular endothelial cells and bovine retinal endothelial cells were purchased from commercial sources. Vascular endothelial cell proliferation was measured by comparing the number of viable cells using a commercial cell viability assay kit. Inhibition of choroid outgrowths was evaluated in a human explant assay. Caspase-3/7 and LDH activities were utilized to assess cytotoxicity.

[2] = Ocular tolerability following a single intravitreal administration in pigmented rabbits; format: in vivo
Experimental: BOL-303213-X In HPMC Suspension. Evaluation of Ocular Tolerability Following a Single Intravitreal Administration in Pigmented Rabbits.
Purpose: The aims of this study were to determine the ocular tolerability and pharmacokinetics of BOL-303213-X in Hydroxy Propyl Methyl Cellulose (HPMC) suspension after a single intravitreal injection at 4 doses: 10, 15, 20 and 30 μg.
Methods: One hundred and two rabbits were allocated into four-dose groups (group 1: 10 μg, group 2: 15 μg, group 3: 20 μg and group 4: 30 μg of BOL-303213-X in HPMC suspension) and one control group (HPMC). Each group was divided in four time-points (15 min, Days 1, 3 and 5) except the control group (one time-point: Day 5). Each animal received an intravitreal injection of test article (50 μl) in the right eye. Tolerability was evaluated by slit lamp examination, anterior chamber inflammation (flare) by laser flare measurements (LFM), intraocular pressure measurements and integrity of the blood retinal barrier (BRB) by vitreous fluorophotometry. These examinations were performed before injection and, on Days 1, 3 and 5. Results: The general behavior of animals was not altered by the treatment. […] No relevant complications were found during the clinical follow-up. […] The blood-retinal barrier was not affected by the different injections. […] There was no difference in IOP between the BOL-303213-X injected and control eyes at any time points.

[3] = Tolerability of intravitreal BOL-303213-X in HPMC in cats; format: in vivo; settings: intravitreal 10 μg in HPMC, statement also covers four pharmacokinetic studies, visible aggregates in vitreous in certain studies
[4] = system: human choroidal endothelial cells; assay: Cytotoxicity (caspase-3/7 and LDH activities), confluent human choroidal endothelial cells; format: cell-based; settings: range of concentrations used for efficacy testing
Experimental: as §1

[5] = system: human dermal microvascular endothelial cells; assay: Vascular endothelial cell proliferation (cell viability assay kit), human dermal microvascular endothelial cells; format: cell-based; settings: dose-dependent
Experimental: as §1

[6] = system: rhVEGF165-induced blood-retinal barrier breakdown; assay: Blood-retinal barrier breakdown induced by rhVEGF165 in pigmented rabbits (vitreous fluorophotometry); format: in vivo
Experimental: (§2) To expand the efficacy observation of BOL-303213-X in non-ocular system, an ocular efficacy study was conducted in rabbits that included ocular observations to evaluate tolerance of intravitreal administration of BOL-303213-X in hydroxypropyl methylcellulose (HPMC). A rabbit model of blood-retinal barrier (BRB) breakdown induced by intravitreal administration of recombinant human vascular endothelial growth factor (rhVEGF) was used. This model mimics pathologic situations such as macular edema, in which VEGF contributes to increased retinal vascular permeability resulting in edema. In this study 30 μg BOL-303213-X in 50 μl of HPMC was given 3 or 5 days before the VEGF challenge with the evaluation of the BRB integrity also at 2 days after the VEGF challenge.
BOL-303213-X/HPMC Suspension: Evaluation of Efficacy in Pigmented Rabbits Using a Model of Blood-Retinal Barrier Breakdown Induced by VEGF.
Purpose: The aim of this study was to evaluate the efficacy of BOL-303213-X (30 μg) in hydroxypropyl methylcellulose (HPMC) suspension in pigmented rabbits using a model of blood-retinal barrier breakdown induced by rhVEGF 165.
(§3) Methods: Eighty four (84) pigmented rabbits were allocated into 8 groups: three groups were given an intravitreal injection (50 μl) of BOL-303213-X (30 μg) in HPMC, three groups were given an intravitreal injection of HPMC vehicle and two groups were given no treatment. The rhVEGF 165 challenge was performed three days after the treatment injection to three groups (BOL-303213-X-treated, vehicle-treated, and untreated). The rhVEGF 165 challenge was also performed at five days after the treatment injection to four groups (BOL-303213-X-treated, vehicle-treated (n=2), and untreated). One group served as control for the tolerability of BOL-303213-X injection. Breakdown of the blood-retinal barrier was evaluated 24 h (one vehicle-treated group) and 48 h (the other six groups) after rhVEGF 165 challenge by fluorescein leakage from retinal vasculature into the vitreous using non-invasive scanning ocular fluorophotometry. Assessment of tolerability was evaluated by slit-lamp examination, laser flare measurements (LFM) of anterior chamber using a laser flare meter, intraocular pressure (IOP) measurements using a pneumotonometer and vitreo-retinal fluorophotometry. These examinations were performed before injection, before the rhVEGF165 challenge and the day of euthanasia. Results: The general behavior of animals was not altered by the treatment. […] No relevant complications were found during the clinical follow-up.

[7] = Ocular tolerability in the rabbit VEGF efficacy study (slit-lamp, laser flare, IOP); format: in vivo
Experimental: as §2, §3

[8] = system: Human retinal endothelial cells (HREC); assay: Network formation assay in Matrigel, human retinal endothelial cells (HREC); format: cell-based; settings: 1% FBS-RF6A medium, 20 ng/ml rhVEGF, 24 hours, approximate, read-out: ED50, inhibition of network formation of human retinal endothelial cells in Matrigel
Experimental: Evaluation of Efficacy of BOL-303213-X In Human Retinal Endothelial Cells (HREC) Using the Network Formation Assay in Matrigel.
Objective: This study was conducted to evaluate the ability of a novel tyrosine kinase inhibitor, BOL-303213-X, to prevent vascular endothelial cell network formation in an in vitro angiogenesis model—network formation assay in Matrigel.
Methods: Human retinal vascular endothelial cells were isolated and cultured from human donor eyes and characterized by Dio-Ac-LDL uptake. Cell network formation was evaluated after these cells were cultured in Matrigel in 1% FBS-RF6A medium with 20 ng/ml rhVEGF and various doses of BOL-303213-X (30, 60, 200, 600 and 1200 nM) for 24 hours. Cell isolates and cultures from three separated donors were used. The total cell network areas were computed by an image analysis software.

[9] = system: human retinal endothelial cells; assay: Vascular endothelial cell proliferation (cell viability assay kit), human retinal endothelial cells; format: cell-based; settings: dose-dependent
Experimental: as §1

[10] = system: human retinal endothelial cells; assay: Cytotoxicity (caspase-3/7 and LDH activities), confluent human retinal endothelial cells; format: cell-based; settings: range of concentrations used for efficacy testing
Experimental: as §1

[11] = system: laser-induced choroidal neovascularization; assay: Laser-induced choroidal neovascularization in cynomolgus monkeys (fluorescein angiography grading); format: in vivo, cynomolgus monkeys (Macaca fascicularis)
Description: BOL-303213-X/HPMC Suspension: Evaluation of Efficacy in Monkeys Using a Laser-Induced Choroidal Neovasuclarization Model.
Purpose: This study was done to qualitatively evaluate the potential inhibitory effect of BOL-303213-X on laser-induced choroidal neovascularization in cynomolgus monkeys when administered biweekly by intravitreal injection beginning at the time of laser treatment.
Methods: Eight cynomolgus monkeys (Macaca fascicularis) were used in this study. The animals were assigned to the study using a computerized procedure designed to achieve body weight balance with respect to groups. The animals were anesthetized with ketamine and xylazine and the eyes dilated with a mydriatic. The macula of both eyes of each animal received laser photocoagulation treatment using a 532 nm diode green laser and slit lamp delivery system and a plano fundus contact lens. This is a standard method for inducing choroidal neovascularization. Nine areas were symmetrically placed in the macula of each eye. The laser parameters included a 75 micron spot size, 0.1 second duration at power settings ranging from 400 to 750 mW. […] Fuorescein angiograms were evaluated according to the following grading system for evidence of excessive permeability (i.e. fluorescein leakage). […]

[12] = system: human choroidal endothelial cells; assay: Vascular endothelial cell proliferation (cell viability assay kit), human choroidal endothelial cells; format: cell-based; settings: dose-dependent
Experimental: as §1

[13] = system: human choroid explant outgrowths; assay: Human choroid explant outgrowth assay (ex vivo); format: cell-based; settings: human choroidal outgrowth assay
Experimental: as §1

[14] = 10-30 μg in HPMC, single intravitreal injection

## CC(C)Cn1c2ccc(Nc3ncccn3)cc2c2c3c(c4c(c21)CCc1nn(C)cc1-4)C(=O)NC3 [BOL-303213-X]
[1]
  Inhibition of proliferation: inhibited proliferation
[2]; 10, 15, 20, 30 μg in HPMC, single intravitreal injection 50 μl
  Toxicity by clinical examination, laser flare and IOP measurements: no evidence of toxicity
[2]; 10-30 μg in HPMC suspension
  Clinical observation in the vitreous following the intravitreal injection: small aggregate of drug precipitates
[2]; [14]
  Blood-retinal barrier integrity (vitreous fluorophotometry): not affected
  Body weights of the animals: within a normal range
  General behavior of animals: not altered
[2]; 1 day after the injection, not dose-dependent
  Anterior chamber inflammation: transient anterior inflammation
[2]; Day 5, at least 1 animal of each group (control group included)
  Animals with some inflammatory cells in the vitreous cavity at fundus examination: 9 rabbits out of 30
[2]; HPMC suspension at 10, 15, 20 and 30 μg-doses, normal pigmented rabbit
  Overall safety conclusion: appeared to be safe
[2]; any time points
  IOP, injected vs control eyes: no difference
[3]
  Ocular tolerability: no major ocular tolerance concerns
[4]
  Caspase-3/7 activity: no significant increase
  LDH activity: no significant increase
[5]
  Inhibition of proliferation: inhibited proliferation
[6]; 30 μg in 50 μl HPMC intravitreal, 3 days before VEGF challenge
  Effect on VEGF-induced retinal vascular permeability / blood-retinal barrier breakdown (in words): significantly reduced; also recorded: effective at blocking
[6]; 30 μg in 50 μl HPMC intravitreal, 3 days before rhVEGF165 challenge, read 48 h after challenge, p=0.04
  Inhibition of vitreous fluorescein leakage vs rhVEGF165 plus HPMC vehicle: 52.7%
[6]; 30 μg in HPMC intravitreal, 3 days before rhVEGF165 challenge, read 48 h after challenge
  Vitreous fluorescein leakage (mean±SD, n=12): 8,458.8±7,067.4
[6]; 30 μg in HPMC intravitreal, 5 days before rhVEGF165 challenge
  Vitreous fluorescein leakage (mean±SD, n=12): 15,228.2±10,364.6
[6]; 30 μg in HPMC intravitreal, 5 days before rhVEGF165 challenge, trend, not statistically significant (p>0.05)
  Inhibition of vitreous fluorescein leakage vs vehicle: 57.7%
[7]; 30 μg in 50 μl HPMC intravitreal, except some eyes with blurred vitreous
  Ocular tolerance observations: no observed tolerance concerns
[7]; 30 μg in HPMC, intravitreal
  Body weights of the animals: within a normal range
  General behavior of animals: not altered
[7]; 30 μg in HPMC, single intravitreal injection
  Toxicity by slit-lamp examination, laser flare and IOP measurements: no evidence of toxicity
[7]; HPMC suspension at 30 μg-dose, normal pigmented rabbits
  Overall safety conclusion: appeared to be safe
[8]
  EC50: ~180 nM
[9]
  Inhibition of proliferation: inhibited proliferation
[10]
  Caspase-3/7 activity: no significant increase
  LDH activity: no significant increase
[11]; 45 μg in HPMC intravitreal after laser and two weeks post-laser, 2, 3 and 4 weeks post-laser
  Percent of grade IV lesions vs HPMC-vehicle contralateral eye: consistently lower
[11]; 45 μg in HPMC suspension, injected after laser challenge
  Inhibition of choroidal neovascularization (in words): effective at inhibiting choroidal neovascularization
[12]
  Inhibition of proliferation: inhibited proliferation
[13]
  Inhibition of choroid outgrowths: effective in inhibiting choroid outgrowths

— US20080125377A1, “DELIVERY SYSTEM FOR ANTIANGIOGENIC AND ANTIINFLAMMATORY PHARMACEUTICALS AND METHOD OF USE” (priority 2006, published 2008)
